Our source for the IC50 values is patent US12479847B2 (DANA-FARBER CANCER INSTITUTE, INC., priority 2019, dated 2025).

For this assay, the target named is human LRRK2 kinase (Homo sapiens, UniProt Q5S007). The conditions noted are these: LRRK2, ADP-Glo, ATP 10 μM, 60 minutes at 25° C. Background: In ADP-Glo the light output rises with the ADP produced.
Chain of human LRRK2 kinase (Q5S007 whole entry): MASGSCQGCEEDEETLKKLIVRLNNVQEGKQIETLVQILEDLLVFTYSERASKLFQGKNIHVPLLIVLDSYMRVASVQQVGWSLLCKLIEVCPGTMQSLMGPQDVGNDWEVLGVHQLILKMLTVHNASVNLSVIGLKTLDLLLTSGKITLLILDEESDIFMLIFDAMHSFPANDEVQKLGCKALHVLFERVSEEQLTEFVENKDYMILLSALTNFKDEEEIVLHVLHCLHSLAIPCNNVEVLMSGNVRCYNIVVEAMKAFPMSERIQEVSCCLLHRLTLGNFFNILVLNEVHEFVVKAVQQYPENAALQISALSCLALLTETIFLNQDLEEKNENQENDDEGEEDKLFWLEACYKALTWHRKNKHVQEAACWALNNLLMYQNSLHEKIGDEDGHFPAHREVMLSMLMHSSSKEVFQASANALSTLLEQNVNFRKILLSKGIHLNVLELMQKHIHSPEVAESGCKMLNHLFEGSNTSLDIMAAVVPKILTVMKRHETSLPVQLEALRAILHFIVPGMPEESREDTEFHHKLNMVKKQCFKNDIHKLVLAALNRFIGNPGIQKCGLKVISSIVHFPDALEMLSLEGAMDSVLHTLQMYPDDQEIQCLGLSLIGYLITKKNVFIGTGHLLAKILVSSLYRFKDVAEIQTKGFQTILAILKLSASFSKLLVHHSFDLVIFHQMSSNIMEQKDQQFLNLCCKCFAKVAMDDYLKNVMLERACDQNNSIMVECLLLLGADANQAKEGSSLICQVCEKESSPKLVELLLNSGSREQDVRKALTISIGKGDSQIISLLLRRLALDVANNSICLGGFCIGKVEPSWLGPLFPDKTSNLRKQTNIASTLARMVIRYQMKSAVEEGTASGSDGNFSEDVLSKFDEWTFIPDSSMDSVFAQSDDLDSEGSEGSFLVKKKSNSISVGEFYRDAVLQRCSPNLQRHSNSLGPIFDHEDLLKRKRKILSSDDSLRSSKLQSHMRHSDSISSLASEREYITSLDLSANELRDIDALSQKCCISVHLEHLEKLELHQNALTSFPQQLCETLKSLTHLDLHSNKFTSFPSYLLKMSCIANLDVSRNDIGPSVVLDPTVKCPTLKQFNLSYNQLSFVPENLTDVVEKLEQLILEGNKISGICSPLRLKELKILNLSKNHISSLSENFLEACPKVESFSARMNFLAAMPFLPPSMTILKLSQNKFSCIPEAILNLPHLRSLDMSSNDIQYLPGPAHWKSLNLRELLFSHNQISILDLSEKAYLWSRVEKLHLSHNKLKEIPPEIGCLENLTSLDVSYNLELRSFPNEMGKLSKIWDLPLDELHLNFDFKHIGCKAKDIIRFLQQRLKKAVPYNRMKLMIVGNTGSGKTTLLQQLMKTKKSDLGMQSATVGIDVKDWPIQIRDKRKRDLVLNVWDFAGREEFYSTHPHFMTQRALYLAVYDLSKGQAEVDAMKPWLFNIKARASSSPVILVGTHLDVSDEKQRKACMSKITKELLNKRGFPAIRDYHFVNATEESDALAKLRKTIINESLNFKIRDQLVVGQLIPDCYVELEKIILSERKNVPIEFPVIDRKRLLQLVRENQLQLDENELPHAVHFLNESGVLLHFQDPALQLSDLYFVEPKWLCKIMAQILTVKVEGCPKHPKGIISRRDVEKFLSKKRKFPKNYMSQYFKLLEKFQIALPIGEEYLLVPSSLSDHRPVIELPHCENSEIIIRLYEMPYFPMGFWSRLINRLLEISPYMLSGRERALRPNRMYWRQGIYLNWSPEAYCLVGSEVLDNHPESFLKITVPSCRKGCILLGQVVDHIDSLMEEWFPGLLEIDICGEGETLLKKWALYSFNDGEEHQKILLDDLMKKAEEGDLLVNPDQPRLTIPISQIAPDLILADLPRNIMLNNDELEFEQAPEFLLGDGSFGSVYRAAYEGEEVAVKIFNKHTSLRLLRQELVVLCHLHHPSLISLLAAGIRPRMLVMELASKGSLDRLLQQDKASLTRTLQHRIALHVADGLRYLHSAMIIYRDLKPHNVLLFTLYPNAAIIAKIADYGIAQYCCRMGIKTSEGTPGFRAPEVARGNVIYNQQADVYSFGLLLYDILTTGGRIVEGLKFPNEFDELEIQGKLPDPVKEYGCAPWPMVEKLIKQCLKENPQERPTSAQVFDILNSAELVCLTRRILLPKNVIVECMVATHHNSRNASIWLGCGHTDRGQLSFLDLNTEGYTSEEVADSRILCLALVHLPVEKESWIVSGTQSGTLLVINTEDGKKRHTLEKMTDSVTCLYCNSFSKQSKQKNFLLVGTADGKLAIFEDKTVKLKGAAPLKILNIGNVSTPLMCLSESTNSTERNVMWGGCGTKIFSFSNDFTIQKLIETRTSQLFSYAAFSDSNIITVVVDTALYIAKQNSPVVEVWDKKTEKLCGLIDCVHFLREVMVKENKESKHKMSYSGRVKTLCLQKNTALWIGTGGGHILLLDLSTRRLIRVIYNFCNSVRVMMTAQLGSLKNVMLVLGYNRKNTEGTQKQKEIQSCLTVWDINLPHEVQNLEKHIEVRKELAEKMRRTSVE
Method: Assay kits from Promega™ Corporation were used according to instructions and adapted as outlined herein. […] The kinase reaction was performed with kinase reaction buffer (40 mM Tris base pH 7.4, 20 mM MgCl2, 0.5 mM dithiothreitol), 0.1 mg/ml bovine serum albumin, distilled H2O). […] In brief, the kinase reactions were started by addition of ATP to the kinase reaction mixture. The resulting mixture was incubated for 60 minutes at 25° C., and then stopped by adding 5 μl of ADP-Glo™ reagent. After incubation at room temperature in the dark for 40 minutes, 10 μl of kinase detection reagent was added per well, and the mixture was incubated for 10 minutes. […] Positive and negative controls were performed in 0.5% DMSO in the presence and absence of LRRK2 kinases. Curve fitting and data presentations were performed using GraphPad Prism version 5.0 (GraphPad Software, Inc.).
In general, IC50 refers to the midpoint of a concentration-inhibition curve. Low values mean greater potency, high ones weaker potency. The compound `CCNc1nc(Nc2ccc(C(=O)N3CCC(N4CCOCC4)CC3)c3c2OCCO3)nc2[nH]cc(Cl)c12` [Compound 1, (8-((5-chloro-4-(ethylamino)-7H-pyrrolo[2,3-d]pyrimidin-2-yl)amino)-2,3-dihydrobenzo[b][1,4]dioxin-5-yl)(4-morpholinopiperidin-1-yl)methanone] displayed a 50% inhibitory concentration (IC50) of less than 10 nM.
With `CCCCNc1nc(Nc2ccc(S(=O)(=O)N3CCOCC3)cc2OC)nc2[nH]cc(Cl)c12` [Compound 71, N4-butyl-5-chloro-N2-(2-methoxy-4-(morpholinosulfonyl)phenyl)-7H-pyrrolo[2,3-d]pyrimidine-2,4-diamine], the IC50 lay within 10 to 100 nM.
Next, `COc1cc(P2(=O)CCN(C(C)=O)CC2)ccc1Nc1nc(NC2CC2)c2c(Cl)c[nH]c2n1` [Compound 91, 1-(4-(4-((5-chloro-4-(cyclopropylamino)-7H-pyrrolo[2,3-d]pyrimidin-2-yl)amino)-3-methoxyphenyl)-4-oxido-1,4-azaphosphinan-1-yl)ethan-1-one]: less than 10 nM; `CCNc1nc(Nc2ccc(S(C)(=O)=O)cc2OC)nc2[nH]cc(Cl)c12` [Compound 16, 5-chloro-N4-ethyl-N2-(2-methoxy-4-(methylsulfonyl)phenyl)-7H-pyrrolo[2,3-d]pyrimidine-2,4-diamine]: 10 to 100 nM; `CCCCNc1nc(Nc2ccc(S(C)(=O)=O)cc2OC)nc2[nH]cc(Cl)c12` [Compound 73, N4-butyl-5-chloro-N2-(2-methoxy-4-(methylsulfonyl)phenyl)-7H-pyrrolo[2,3-d]pyrimidine-2,4-diamine]: 10 to 100 nM.
Take `CCNc1nc(Nc2ccc(P3(=O)CCN(C(C)=O)CC3)cc2OC)nc2[nH]cc(Cl)c12` [Compound 98]: the IC50 is less than 10 nM.
For `CNc1nc(Nc2ccc(P3(=O)CCN(C(C)=O)CC3)cc2OC)nc2[nH]cc(Cl)c12` [Compound 82, 1-(4-(4-((5-chloro-4-(methylamino)-7H-pyrrolo[2,3-d]pyrimidin-2-yl)amino)-3-methoxyphenyl)-4-oxido-1,4-azaphosphinan-1-yl)ethan-1-one], the IC50 is less than 10 nM.
In the case of `CCC(C)Nc1nc(Nc2ccc(S(=O)(=O)N3CCC(N4CCOCC4)CC3)cc2OC)nc2[nH]cc(Cl)c12` (stereo in doubt) [Compound 52, (S)—N4-(sec-butyl)-5-chloro-N2-(2-methoxy-4-((4-morpholinopiperidin-1-yl)sulfonyl)phenyl)-7H-pyrrolo[2,3-d]pyrimidine-2,4-diamine], the half-inhibitory concentration (IC50) lay in the range of 10 to 100 nM.
Next, `COc1cc(P2(=O)CCN(C3CC3)CC2)ccc1Nc1nc(NC2CCC2)c2c(Cl)c[nH]c2n1` [Compound 104, 4-(4-((5-chloro-4-(cyclobutylamino)-7H-pyrrolo[2,3-d]pyrimidin-2-yl)amino)-3-methoxyphenyl)-1-cyclopropyl-1,4-azaphosphinane 4-oxide]: 10 to 100 nM.
Next, `COc1cc(S(=O)(=O)N2CCOCC2)ccc1Nc1nc(NC2CC2)c2c(Cl)c[nH]c2n1` [Compound 24, 5-chloro-N4-cyclopropyl-N2-(2-methoxy-4-(morpholinosulfonyl)phenyl)-7H-pyrrolo[2,3-d]pyrimidine-2,4-diamine]: 10 to 100 nM; `COc1cc(S(C)(=O)=O)ccc1Nc1nc(NC2CCOCC2)c2c(Cl)c[nH]c2n1` [Compound 63, 5-chloro-N2-(2-methoxy-4-(methylsulfonyl)phenyl)-N4-(tetrahydro-2H-pyran-4-yl)-7H-pyrrolo[2,3-d]pyrimidine-2,4-diamine]: 10 to 100 nM.
Compound `COCCNc1nc(Nc2ccc(S(=O)(=O)N3CCOCC3)cc2OC)nc2[nH]cc(Cl)c12` [Compound 21, 5-chloro-N2-(2-methoxy-4-(morpholinosulfonyl)phenyl)-N4-(2-methoxyethyl)-7H-pyrrolo[2,3-d]pyrimidine-2,4-diamine] had an IC50 of less than 10 nM.
The figure for `COc1cc(P2(=O)CCN(C3CC3)CC2)ccc1Nc1nc(NC2CCCC2)c2c(Cl)c[nH]c2n1` [Compound 78, 4-(4-((5-chloro-4-(cyclopentylamino)-7H-pyrrolo[2,3-d]pyrimidin-2-yl)amino)-3-methoxyphenyl)-1-cyclopropyl-1,4-azaphosphinane 4-oxide] is 10 to 100 nM.
Next, `CNc1nc(Nc2ccc(C(=O)N3CCC(N4CCOCC4)CC3)c3c2OCCO3)nc2[nH]cc(Cl)c12` [Compound 10, (8-((5-chloro-4-(methylamino)-7H-pyrrolo[2,3-d]pyrimidin-2-yl)amino)-2,3-dihydrobenzo[b][1,4]dioxin-5-yl)(4-morpholinopiperidin-1-yl)methanone]: less than 10 nM; `COc1cc(S(C)(=O)=O)ccc1Nc1nc(NC2CCCCC2)c2c(Cl)c[nH]c2n1` [Compound 59, 5-chloro-N4-cyclohexyl-N2-(2-methoxy-4-(methylsulfonyl)phenyl)-7H-pyrrolo[2,3-d]pyrimidine-2,4-diamine]: 100 to 1000 nM.
As for `COc1cc(S(C)(=O)=O)ccc1Nc1nc(NCC2CCC2)c2c(Cl)c[nH]c2n1` [Compound 66, 5-chloro-N4-(cyclobutylmethyl)-N2-(2-methoxy-4-(methylsulfonyl)phenyl)-7H-pyrrolo[2,3-d]pyrimidine-2,4-diamine], the concentration for half-maximal inhibition (IC50) was 100 to 1000 nM.
In turn, `CCCCNc1nc(Nc2ccc(C(=O)N3CCOCC3)c3c2OCCO3)nc2[nH]cc(Cl)c12` [Compound 74, (8-((4-(butylamino)-5-chloro-7H-pyrrolo[2,3-d]pyrimidin-2-yl)amino)-2,3-dihydrobenzo[b][1,4]dioxin-5-yl)(morpholino)methanone] registered an IC50 of 10 to 100 nM.
The compound `CC[C@@H](C)Nc1nc(Nc2ccc(S(C)(=O)=O)cc2OC)nc2[nH]cc(Cl)c12` [Compound 49, (R)—N4-(sec-butyl)-5-chloro-N2-(2-methoxy-4-(methylsulfonyl)phenyl)-7H-pyrrolo[2,3-d]pyrimidine-2,4-diamine] registered an IC50 of 10 to 100 nM.
The figure for `CCNc1nc(Nc2ccc(P3(=O)CCN(C4CC4)CC3)cc2OC)nc2[nH]cc(Cl)c12` [Compound 84, 4-(4-((5-chloro-4-(ethylamino)-7H-pyrrolo[2,3-d]pyrimidin-2-yl)amino)-3-methoxyphenyl)-1-cyclopropyl-1,4-azaphosphinane 4-oxide] is 10 to 100 nM; for `CCCNc1nc(Nc2ccc(C(=O)N3CCOCC3)c3c2OCCO3)nc2[nH]cc(Cl)c12` [Compound 20, (8-((5-chloro-4-(propylamino)-7H-pyrrolo[2,3-d]pyrimidin-2-yl)amino)-2,3-dihydrobenzo[b][1,4]dioxin-5-yl)(morpholino)methanone] it is 10 to 100 nM; for `CCNc1nc(Nc2ccc(S(=O)(=O)N3CCC(N4CCOCC4)CC3)cc2OC)nc2[nH]cc(Cl)c12` [Compound 15, 5-chloro-N4-ethyl-N2-(2-methoxy-4-((4-morpholinopiperidin-1-yl)sulfonyl)phenyl)-7H-pyrrolo[2,3-d]pyrimidine-2,4-diamine] it is less than 10 nM.
Next, `COc1cc(S(=O)(=O)N2CCOCC2)ccc1Nc1nc(N[C@H]2CCOC2)c2c(Cl)c[nH]c2n1` [Compound 60, (S)-5-chloro-N2-(2-methoxy-4-(morpholinosulfonyl)phenyl)-N4-(tetrahydrofuran-3-yl)-7H-pyrrolo[2,3-d]pyrimidine-2,4-diamine]: 10 to 100 nM; `CCCNc1nc(Nc2ccc(S(=O)(=O)N3CCOCC3)cc2OC)nc2[nH]cc(Cl)c12` [Compound 18, 5-chloro-N2-(2-methoxy-4-(morpholinosulfonyl)phenyl)-N4-propyl-7H-pyrrolo[2,3-d]pyrimidine-2,4-diamine]: 100 to 1000 nM.
Next, `COc1cc(S(=O)(=O)N2CCOCC2)ccc1Nc1nc(NC2CCOCC2)c2c(Cl)c[nH]c2n1` [Compound 62, 5-chloro-N2-(2-methoxy-4-(morpholinosulfonyl)phenyl)-N4-(tetrahydro-2H-pyran-4-yl)-7H-pyrrolo[2,3-d]pyrimidine-2,4-diamine]: less than 10 nM; `O=C(c1ccc(Nc2nc(NC3CC3)c3c(Cl)c[nH]c3n2)c2c1OCCO2)N1CCC(N2CCOCC2)CC1` [Compound 3, (8-((5-chloro-4-(cyclopropylamino)-7H-pyrrolo[2,3-d]pyrimidin-2-yl)amino)-2,3-dihydrobenzo[b][1,4]dioxin-5-yl)(4-morpholinopiperidin-1-yl)methanone]: less than 10 nM.
Take `O=C(c1ccc(Nc2nc(NC3CCCCC3)c3c(Cl)c[nH]c3n2)c2c1CCO2)N1CCOCC1` [Compound 83, (7-((5-chloro-4-(cyclohexylamino)-7H-pyrrolo[2,3-d]pyrimidin-2-yl)amino)-2,3-dihydrobenzofuran-4-yl)(morpholino)methanone]: the IC50 lay within 100 to 1000 nM.
On to `CCC(C)Nc1nc(Nc2ccc(S(C)(=O)=O)cc2OC)nc2[nH]cc(Cl)c12` (stereo in doubt) [Compound 53, (S)—N4-(sec-butyl)-5-chloro-N2-(2-methoxy-4-(methylsulfonyl)phenyl)-7H-pyrrolo[2,3-d]pyrimidine-2,4-diamine], for which the IC50 fell in the range of 100 to 1000 nM.
The compound `COc1cc(P2(=O)CCN(C3CCOCC3)CC2)ccc1Nc1nc(NC2CCCC2)c2c(Cl)c[nH]c2n1` [Compound 79] had a concentration for half-maximal inhibition (IC50) of 10 to 100 nM.
`CCNc1nc(Nc2ccc(C(=O)N3CCC(N4CCOCC4)CC3)c3c2OCC3)nc2[nH]cc(Cl)c12` [Compound 105, (7-((5-chloro-4-(ethylamino)-7H-pyrrolo[2,3-d]pyrimidin-2-yl)amino)-2,3-dihydrobenzofuran-4-yl)(4-morpholinopiperidin-1-yl)methanone] showed an IC50 of less than 10 nM.
Next, `COc1cc(S(=O)(=O)N2CCOCC2)ccc1Nc1nc(NC2CCC2)c2c(Cl)c[nH]c2n1` [Compound 7, 5-chloro-N4-cyclobutyl-N2-(2-methoxy-4-(morpholinosulfonyl)phenyl)-7H-pyrrolo[2,3-d]pyrimidine-2,4-diamine]: 100 to 1000 nM.
As for `COc1cc(S(=O)(=O)N2CCC(N3CCOCC3)CC2)ccc1Nc1nc(NC(C)C)c2c(Cl)c[nH]c2n1` [Compound 87, 5-chloro-N4-isopropyl-N2-(2-methoxy-4-((4-morpholinopiperidin-1-yl)sulfonyl)phenyl)-7H-pyrrolo[2,3-d]pyrimidine-2,4-diamine], the IC50 is 100 to 1000 nM.
